Assay results published in US20240270762A1, “PENICILLIN-BINDING PROTEIN INHIBITORS” (priority 2021, published 2024).
≈ marks a conversion by molar mass, not a printed value.

Columns and labels:
[1] = target: T1, PBP3 from Escherichia coli (K-12) (Escherichia coli, UniProt P0AD68); test: Bocillin-FL fluorescence polarization competition binding, E. coli PBP3
T1 construct: made in house
Outline: (§1)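 Purified PBPs pre-incubated with inhibitor (E. coli PBP3 1.5 μM, 30 min; P. aeruginosa PBP3 0.75 μM, A. baumannii PBP1a 1 μM and PBP3 0.2 μM, 15 min), then Bocillin-FL 0.1 μM (0.05 μM for PBP1a) added; FP read up to 60 min. EC50 = concentration halving bound Bocillin-FL.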

[2] = target: T2, PBP3 from Pseudomonas aeruginosa (PAO1) (Pseudomonas aeruginosa, UniProt G3XD46); test: Bocillin-FL fluorescence polarization competition binding, P. aeruginosa PBP3; details: Binding affinity to P. aeruginosa PBP3; fluorescence polarization competition binding assay using Bocillin-FL; read-out: P. aeruginosa PBP3 Potency
T2 construct: made in house
T2 sequence (G3XD46 whole entry): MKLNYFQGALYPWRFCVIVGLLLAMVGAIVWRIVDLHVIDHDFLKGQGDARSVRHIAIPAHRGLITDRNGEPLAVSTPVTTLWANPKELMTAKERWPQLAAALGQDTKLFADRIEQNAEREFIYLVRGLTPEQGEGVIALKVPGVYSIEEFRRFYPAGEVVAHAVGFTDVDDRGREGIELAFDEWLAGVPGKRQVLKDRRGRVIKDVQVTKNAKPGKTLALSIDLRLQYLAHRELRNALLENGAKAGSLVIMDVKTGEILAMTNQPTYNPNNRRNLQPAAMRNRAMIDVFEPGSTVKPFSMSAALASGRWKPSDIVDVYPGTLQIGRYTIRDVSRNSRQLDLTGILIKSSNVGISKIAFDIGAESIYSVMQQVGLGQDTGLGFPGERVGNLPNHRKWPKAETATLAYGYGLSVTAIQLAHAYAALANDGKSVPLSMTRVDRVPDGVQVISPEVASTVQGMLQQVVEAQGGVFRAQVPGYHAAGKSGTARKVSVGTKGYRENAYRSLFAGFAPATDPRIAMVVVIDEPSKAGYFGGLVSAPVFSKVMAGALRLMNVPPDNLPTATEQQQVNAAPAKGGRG
Outline: as §1

[3] = target: T3, PBP3 from Acinetobacter baumannii (ATCC 19606) (Acinetobacter baumannii, UniProt A0ABX6CK25); test: Bocillin-FL fluorescence polarization competition binding, A. baumannii PBP3; details: fluorescence polarization competition binding assay using Bocillin-FL; read-out: A. baumannii PBP3 Potency
T3 sequence (A0ABX6CK25 64-610): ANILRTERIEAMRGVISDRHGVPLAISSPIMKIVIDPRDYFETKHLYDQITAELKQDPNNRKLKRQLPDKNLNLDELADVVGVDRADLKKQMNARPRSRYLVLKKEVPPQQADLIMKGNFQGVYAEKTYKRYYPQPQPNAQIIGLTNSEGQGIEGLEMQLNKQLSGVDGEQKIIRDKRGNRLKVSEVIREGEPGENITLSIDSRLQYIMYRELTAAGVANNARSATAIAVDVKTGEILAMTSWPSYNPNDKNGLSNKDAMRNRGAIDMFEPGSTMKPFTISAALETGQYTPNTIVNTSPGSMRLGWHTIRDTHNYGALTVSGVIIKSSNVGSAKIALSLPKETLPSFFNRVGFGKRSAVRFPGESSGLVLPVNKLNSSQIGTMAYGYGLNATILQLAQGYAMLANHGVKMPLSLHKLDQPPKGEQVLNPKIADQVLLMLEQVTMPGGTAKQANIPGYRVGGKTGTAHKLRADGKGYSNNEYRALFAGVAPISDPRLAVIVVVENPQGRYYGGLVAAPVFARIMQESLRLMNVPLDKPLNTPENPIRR
Outline: as §1

P. aeruginosa ATCC 35151 = test: microbe, parasite or virus in culture; format: cell-based; details: Pseudomonas aeruginosa, ATCC35151, read-out: Minimum inhibitory concentration, P. aeruginosa ATCC 35151
P. aeruginosa CDC-0090 = test: microbe, parasite or virus in culture; format: cell-based; details: Pseudomonas aeruginosa, CDC0090, read-out: Minimum inhibitory concentration, P. aeruginosa CDC-0090
P. aeruginosa CDC-0095 = test: microbe, parasite or virus in culture; format: cell-based; details: Pseudomonas aeruginosa, CDC0095, read-out: Minimum inhibitory concentration, P. aeruginosa CDC-0095
A. baumannii CDC-0033 = test: microbe, parasite or virus in culture; format: cell-based; details: Acinetobacter baumannii, CDC0033, read-out: MIC, A. baumannii CDC-0033
[4] = system: B. thailandensis ATCC 700388; test: microbe, parasite or virus in culture; format: cell-based; details: Burkholderia thailandensis, ATCC700388, read-out: Minimum inhibitory concentration (MIC), B. thailandensis ATCC 700388
[5] = system: N. gonorrhoeae ATCC 49226; test: Liquid broth MIC in Fastidious broth; details: Neisseria gonorrhoeae, ATCC49226, read-out: Minimum Inhibitory Concentration, ATCC 49226
N. gonorrhoeae FA1090 = test: Liquid broth MIC in Fastidious broth; details: Neisseria gonorrhoeae, FA1090, read-out: Minimum Inhibitory Concentration, FA 1090
N. gonorrhoeae WHO G = test: Liquid broth MIC in Fastidious broth; details: Neisseria gonorrhoeae, read-out: Minimum Inhibitory Concentration, WHO G

T1 sequence (P0AD68 1-577): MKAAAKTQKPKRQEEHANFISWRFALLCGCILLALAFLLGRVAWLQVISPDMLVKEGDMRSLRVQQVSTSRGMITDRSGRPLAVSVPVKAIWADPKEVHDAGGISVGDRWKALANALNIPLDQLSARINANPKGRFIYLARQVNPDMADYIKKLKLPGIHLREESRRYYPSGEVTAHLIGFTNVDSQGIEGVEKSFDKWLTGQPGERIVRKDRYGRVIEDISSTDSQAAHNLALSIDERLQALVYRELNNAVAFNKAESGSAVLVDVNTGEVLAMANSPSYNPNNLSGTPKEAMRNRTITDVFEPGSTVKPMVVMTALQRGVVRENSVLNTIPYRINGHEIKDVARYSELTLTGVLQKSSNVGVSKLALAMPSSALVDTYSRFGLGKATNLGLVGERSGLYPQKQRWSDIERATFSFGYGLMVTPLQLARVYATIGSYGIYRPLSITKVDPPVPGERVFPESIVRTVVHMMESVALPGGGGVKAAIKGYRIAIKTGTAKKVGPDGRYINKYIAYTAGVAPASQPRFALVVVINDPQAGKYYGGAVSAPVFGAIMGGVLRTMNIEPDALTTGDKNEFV

Compound	EC50 [1] [µM]	IC50 [2] [µM]	IC50 [3] [µM]	MIC (P. aeruginosa ATCC 35151) [µg/mL]	MIC (P. aeruginosa CDC-0090) [µg/mL]	MIC (P. aeruginosa CDC-0095) [µg/mL]	MIC (A. baumannii CDC-0033) [µg/mL]	MIC [4] [µg/mL]	MIC [5] [µg/mL]	MIC (N. gonorrhoeae FA1090) [µg/mL]	MIC (N. gonorrhoeae WHO G) [µg/mL]
O=C(NCCS(=O)(=O)N1CCN(C(=O)N[C@H](C(=O)N[C@H]2Cc3ccc(F)c(C(=O)O)c3OB2O)c2cc(F)c(O)c(O)c2Cl)C1=O)c1ccc(O)cc1 [Example 286, (R)-3-((S)-2-(2-chloro-5-fluoro-3,4-dihydroxyphenyl)-2-(3-((2-(4-hydroxybenzamido)ethyl)sulfonyl)-2-oxoimidazolidine-1-carboxamido)acetamido)-7-fluoro-2-hydroxy-3,4-dihydro-2H-benzo[e][1,2]oxaborinine-8-carboxylic acid]	> 250	> 250	50 to 250	8 to 16 (≈ 10.2 to 20.5 µM)	> 128	> 128	> 128	> 128	> 64	> 64	> 64
Cc1cc(C(=O)NCCCN2CCN(C(=O)N[C@@H](C(=O)N[C@H]3Cc4ccc(F)c(C(=O)O)c4OB3O)c3cc(F)c(O)c(O)c3Cl)C(=O)C2=O)ccn1 [Example 298, (R)-3-((R)-2-(2-chloro-5-fluoro-3,4-dihydroxyphenyl)-2-(4-(3-(2-methylisonicotinamido)propyl)-2,3-dioxopiperazine-1-carboxamido)acetamido)-7-fluoro-2-hydroxy-3,4-dihydro-2H-benzo[e][1,2]oxaborinine-8-carboxylic acid]	< 10	< 10	< 10	< 1	< 1	< 1	2 to 4 (≈ 2.64 to 5.27 µM)	< 1	16 to 32 (≈ 21.1 to 42.2 µM)	1 to 2 (≈ 1.32 to 2.64 µM)	16 to 32 (≈ 21.1 to 42.2 µM)
O=C(NCCCN1CCN(C(=O)N[C@@H](C(=O)N[C@H]2Cc3ccc(F)c(C(=O)O)c3OB2O)c2cc(F)c(O)c(O)c2Cl)C(=O)C1=O)c1ccncc1O [Example 296, (R)-3-((R)-2-(2-chloro-5-fluoro-3,4-dihydroxyphenyl)-2-(4-(3-(3-hydroxyisonicotinamido)propyl)-2,3-dioxopiperazine-1-carboxamido)acetamido)-7-fluoro-2-hydroxy-3,4-dihydro-2H-benzo[e][1,2]oxaborinine-8-carboxylic acid]	< 10	< 10	< 10	< 1	< 1	< 1	2 to 4 (≈ 2.63 to 5.26 µM)	2 to 4 (≈ 2.63 to 5.26 µM)	16 to 32 (≈ 21 to 42.1 µM)	1 to 2 (≈ 1.31 to 2.63 µM)	16 to 32 (≈ 21 to 42.1 µM)
O=C(NCCS(=O)(=O)N1CCN(C(=O)N[C@@H](C(=O)N[C@H]2Cc3ccc(F)c(C(=O)O)c3OB2O)c2cc(F)c(O)c(O)c2Cl)C1=O)c1ccc(O)cc1 [Example 287, (R)-3-((R)-2-(2-chloro-5-fluoro-3,4-dihydroxyphenyl)-2-(3-((2-(4-hydroxybenzamido)ethyl)sulfonyl)-2-oxoimidazolidine-1-carboxamido)acetamido)-7-fluoro-2-hydroxy-3,4-dihydro-2H-benzo[e][1,2]oxaborinine-8-carboxylic acid]	< 10	< 10	< 10	< 1	2 to 4 (≈ 2.56 to 5.12 µM)	2 to 4 (≈ 2.56 to 5.12 µM)	< 1	2 to 4 (≈ 2.56 to 5.12 µM)	4 to 8 (≈ 5.12 to 10.2 µM)	1 to 2 (≈ 1.28 to 2.56 µM)	4 to 8 (≈ 5.12 to 10.2 µM)
O=C(NCCCN1CCN(C(=O)N[C@@H](C(=O)N[C@H]2Cc3ccc(F)c(C(=O)O)c3OB2O)c2cc(F)c(O)c(O)c2Cl)C1=O)Nc1ccc(O)cc1 [Example 284, (R)-3-((R)-2-(2-chloro-5-fluoro-3,4-dihydroxyphenyl)-2-(3-(3-(3-(4-hydroxyphenyl)ureido)propyl)-2-oxoimidazolidine-1-carboxamido)acetamido)-7-fluoro-2-hydroxy-3,4-dihydro-2H-benzo[e][1,2]oxaborinine-8-carboxylic acid]	10 to 50	< 10	< 10	< 1	< 1	< 1	< 1	< 1	4 to 8 (≈ 5.36 to 10.7 µM)	1 to 2 (≈ 1.34 to 2.68 µM)	4 to 8 (≈ 5.36 to 10.7 µM)
O=C(NCCCN1CCN(C(=O)NC(C(=O)N[C@H]2Cc3ccc(F)c(C(=O)O)c3OB2O)c2cc(F)c(O)c(O)c2Cl)C(=O)C1=O)c1ccc(O)c(F)c1 (stereo partly drawn) [Example 304, (3R)-3-(2-(2-chloro-5-fluoro-3,4-dihydroxyphenyl)-2-(4-(3-(3-fluoro-4-hydroxybenzamido)propyl)-2,3-dioxopiperazine-1-carboxamido)acetamido)-7-fluoro-2-hydroxy-3,4-dihydro-2H-benzo[e][1,2]oxaborinine-8-carboxylic acid]	< 10	< 10	< 10	< 1	< 1	< 1	2 to 4 (≈ 2.57 to 5.14 µM)	2 to 4 (≈ 2.57 to 5.14 µM)	16 to 32 (≈ 20.6 to 41.1 µM)	1 to 2 (≈ 1.29 to 2.57 µM)	16 to 32 (≈ 20.6 to 41.1 µM)
O=C(NCCCN1CCN(C(=O)NC(C(=O)N[C@H]2Cc3ccc(F)c(C(=O)O)c3OB2O)c2cc(F)c(O)c(O)c2Cl)C1=O)c1ccc(O)cc1 (stereo partly drawn) [Example 280, (3R)-3-(2-(2-chloro-5-fluoro-3,4-dihydroxyphenyl)-2-(3-(3-(4-hydroxybenzamido)propyl)-2-oxoimidazolidine-1-carboxamido)acetamido)-7-fluoro-2-hydroxy-3,4-dihydro-2H-benzo[e][1,2]oxaborinine-8-carboxylic acid]	10 to 50	< 10	< 10	< 1	2 to 4 (≈ 2.73 to 5.47 µM)	8 to 16 (≈ 10.9 to 21.9 µM)	2 to 4 (≈ 2.73 to 5.47 µM)	2 to 4 (≈ 2.73 to 5.47 µM)	16 to 32 (≈ 21.9 to 43.7 µM)	4 to 8 (≈ 5.47 to 10.9 µM)	16 to 32 (≈ 21.9 to 43.7 µM)
Cc1cc(C(=O)NCCCN2CCN(C(=O)NC(C(=O)N[C@H]3Cc4ccc(F)c(C(=O)O)c4OB3O)c3cc(F)c(O)c(O)c3Cl)C(=O)C2=O)c(F)cn1 (stereo partly drawn) [Example 301, (3R)-3-(2-(2-chloro-5-fluoro-3,4-dihydroxyphenyl)-2-(4-(3-(5-fluoro-2-methylisonicotinamido)propyl)-2,3-dioxopiperazine-1-carboxamido)acetamido)-7-fluoro-2-hydroxy-3,4-dihydro-2H-benzo[e][1,2]oxaborinine-8-carboxylic acid]	< 10	< 10	< 10	< 1	< 1	< 1	2 to 4 (≈ 2.57 to 5.15 µM)	2 to 4 (≈ 2.57 to 5.15 µM)	16 to 32 (≈ 20.6 to 41.2 µM)	4 to 8 (≈ 5.15 to 10.3 µM)	16 to 32 (≈ 20.6 to 41.2 µM)
